For this assay, the species on record is Rattus norvegicus. The experiment in a line: Effect on the growth of axons of hippocampal neurons stimulated by basic fibroblast growth factor (bFGF), no. of axonal branch points/cell at 51 hr upon incubation with bFGF 1.52 0.09. It counts as functional.
With `CCCCCCC/C=C/[C@@H](O)[C@H](CO)NC(C)=O`, the “No. of axonal branch points/cell” value was determined as 1.5.
Turning to `CCCC(=O)N[C@@H](CO)[C@H](O)/C=C/c1ccccc1`, the “No. of axonal branch points/cell” value is recorded as 1.38.
`CCCCCCCC(=O)N[C@@H](CO)[C@H](O)/C=C/c1ccccc1`: the “No. of axonal branch points/cell” value came to 1.4.
With `CCCCCCC/C=C/[C@H](O)[C@H](CO)NC(=O)CCCCC`, the “No. of axonal branch points/cell” value amounted to 1.18.
Consider `CCCCCCC/C=C/[C@@H](O)[C@H](CO)NC(=O)CCCCC`, for which the “No. of axonal branch points/cell” value was 1.3.
For `CCCCCC(=O)N[C@@H](CO)[C@H](O)/C=C/c1ccccc1`, the “No. of axonal branch points/cell” value stood at 1.45.
As for `CCCCCC(=O)N[C@@H](CO)[C@@H](O)/C=C/c1ccccc1`, the “No. of axonal branch points/cell” value is reported as 1.22.
Next, `CC(=O)N[C@@H](CO)[C@H](O)/C=C/c1ccccc1`: 1.3; `CCCC[C@H](C)[C@@H](OC(=O)C[C@H](CC(=O)O)C(=O)O)[C@@H](C[C@H](C)C[C@@H](O)CCCC[C@@H](O)C[C@H](O)[C@H](C)N)OC(=O)C[C@H](CC(=O)O)C(=O)O`: 1.12.

The values are drawn from ChEMBL document CHEMBL1132305, “Effect of aromatic short-chain analogues of ceramide on axonal growth in hippocampal neurons” (1999).
